The results in this text go back to patent US7906655B2, “Hepatitis C virus inhibitors” (Bristol-Myers Squibb Company, priority 2008, dated 2011).

One test deals with HCV 1b genotype. Briefly: HCV Replicon assay (HCV-neo replicon cells, wild-type). It counts as cell-based. The settings on record: HCV 1b genotype replicon; class symbols. In outline:
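Assay used wild-type HCV genotype 1b replicon cells carrying neo, with luciferase reporter read-outs in some formats.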
Background: In antiviral work, replicon cells carry a viral genome segment that copies itself.
Usually EC50 stands for the midpoint of the concentration-response curve. With `C[C@@](O)(C(=O)N1CCC[C@H]1c1nc2cc(C#Cc3ccc4[nH]c([C@@H]5CCCN5C(=O)[C@@](C)(O)c5ccccc5)nc4c3)ccc2[nH]1)c1ccccc1` [Example M16], the EC50 was < 4.57 nM. In the case of `O=C(c1cccnc1)N1CCC[C@H]1c1nc2cc(C#Cc3ccc4[nH]c([C@@H]5CCCN5C(=O)c5cccnc5)nc4c3)ccc2[nH]1` [Example M26.1, N,N′-(1,2-ethynediyl)bis(2-((2S)-1-(3-pyridinylcarbonyl)-2-pyrrolidinyl)-1H-benzimidazole)], the EC50 was in the range of 100 to 999 nM.

Staying with this test, now noted: Hepatitis C virus, HCV 1b genotype replicon; class symbols.
As to `O=C(Cc1cccnc1)N1CCC[C@H]1c1nc2cc(C#Cc3ccc4[nH]c([C@@H]5CCCN5C(=O)Cc5cccnc5)nc4c3)ccc2[nH]1` [Example M11, 5,5′-(1,2-ethynediyl)bis(2-((2S)-1-(3-pyridinylacetyl)-2-pyrrolidinyl)-1H-benzimidazole)], the EC50 is < 4.57 nM. For the compound `Cn1cccc1C(=O)N1CCC[C@H]1c1nc2cc(C#Cc3ccc4[nH]c([C@@H]5CCCN5C(=O)c5cccn5C)nc4c3)ccc2[nH]1` [Example M12, 5,5′-(1,2-ethynediyl)bis(2-((2S)-1-((1-methyl-1H-pyrrol-2-yl)carbonyl)-2-pyrrolidinyl)-1H-benzimidazole)], the EC50 was 4.57 to 99 nM.

With `O=C(c1ccoc1)N1CCC[C@H]1c1nc2cc(C#Cc3ccc4[nH]c([C@@H]5CCCN5C(=O)c5ccoc5)nc4c3)ccc2[nH]1` [Example M13, 5,5′-(1,2-ethynediyl)bis(2-((2S)-1-(3-furoyl)-2-pyrrolidinyl)-1H-benzimidazole)], the EC50 is < 4.57 nM. In the case of `O=C(C1CCOC1)N1CCC[C@H]1c1nc2cc(C#Cc3ccc4[nH]c([C@@H]5CCCN5C(=O)C5CCOC5)nc4c3)ccc2[nH]1` (stereo partly drawn) [Example M14, 5,5′-(1,2-ethynediyl)bis(2-((2S)-1-(tetrahydro-3-furanylcarbonyl)-2-pyrrolidinyl)-1H-benzimidazole)], the EC50 fell in the range of 4.57 to 99 nM. `O=C([C@H](O)c1ccccc1)N1CCC[C@H]1c1nc2cc(C#Cc3ccc4[nH]c([C@@H]5CCCN5C(=O)[C@H](O)c5ccccc5)nc4c3)ccc2[nH]1` [Example M15, (1R,1′R)-2,2′-(1,2-ethynediylbis(1H-benzimidazole-5,2-diyl(2S)-2,1-pyrrolidinediyl))bis(2-oxo-1-phenylethanol)]: the EC50 is < 4.57 nM. In the case of `COc1cccc2c(C(=O)N3CCC[C@H]3c3nc4cc(C#Cc5ccc6nc([C@@H]7CCCN7C(=O)c7nc(Cl)cc8c(OC)cccc78)[nH]c6c5)ccc4[nH]3)nc(Cl)cc12` [Example M18, 3-chloro-1-(((2S)-2-(5-((2-((2S)-1-((3-chloro-5-methoxy-1-isoquinolinyl)carbonyl)-2-pyrrolidinyl)-1H-benzimidazol-6-yl)ethynyl)-1H-benzimidazol-2-yl)-1-pyrrolidinyl)carbonyl)-5-methoxyisoquinoline], the concentration for a half-maximal effect (EC50) lay in the range of 100 to 999 nM. On to `CN(C)[C@@H](C(=O)N1CCC[C@H]1c1nc2cc(C#Cc3ccc4nc([C@@H]5CCCN5C(=O)[C@@H](c5ccccc5)N(C)C)[nH]c4c3)ccc2[nH]1)c1ccccc1` [Example M19, (1R)-2-((2S)-2-(5-((2-((2S)-1-((2R)-2-(dimethylamino)-2-phenylacetyl)-2-pyrrolidinyl)-1H-benzimidazol-6-yl)ethynyl)-1H-benzimidazol-2-yl)-1-pyrrolidinyl)-N,N-dimethyl-2-oxo-1-phenylethanamine], for which the EC50 is < 4.57 nM. As to `O=CN[C@@H](C(=O)N1CCC[C@H]1c1nc2cc(C#Cc3ccc4[nH]c([C@@H]5CCCN5C(=O)[C@H](NC=O)c5ccccc5)nc4c3)ccc2[nH]1)c1ccccc1` [Example M20, N,N′-(1,2-ethynediylbis(1H-benzimidazole-5,2-diyl(2S)-2,1-pyrrolidinediyl((1R)-2-oxo-1-phenyl-2,1-ethanediyl)))diformamide], the EC50 was < 4.57 nM.

For the compound `CC(=O)N[C@@H](C(=O)N1CCC[C@H]1c1nc2cc(C#Cc3ccc4nc([C@@H]5CCCN5C(=O)[C@H](NC(C)=O)c5ccccc5)[nH]c4c3)ccc2[nH]1)c1ccccc1` [Example M21, N-((1R)-2-((2S)-2-(5-((2-((2S)-1-((2R)-2-acetamido-2-phenylacetyl)-2-pyrrolidinyl)-1H-benzimidazol-6-yl)ethynyl)-1H-benzimidazol-2-yl)-1-pyrrolidinyl)-2-oxo-1-phenylethyl)acetamide], the 50% effective concentration (EC50) was < 4.57 nM. Still for that read-out and setting: next, `O=C([C@@H](c1ccccc1)N1CCOCC1)N1CCC[C@H]1c1nc2cc(C#Cc3ccc4[nH]c([C@@H]5CCCN5C(=O)[C@@H](c5ccccc5)N5CCOCC5)nc4c3)ccc2[nH]1` [Example M22, 5,5′-(1,2-ethynediyl)bis(2-((2S)-1-((2R)-2-(4-morpholinyl)-2-phenylacetyl)-2-pyrrolidinyl)-1H-benzimidazole)]: < 4.57 nM; `COC(=O)N[C@@H](C(=O)N1CCC[C@H]1c1nc2cc(C#Cc3ccc4[nH]c([C@@H]5CCCN5C(=O)[C@H](NC(=O)OC)c5ccccc5)nc4c3)ccc2[nH]1)c1ccccc1` [Example M23, dimethyl (1,2-ethynediylbis(1H-benzimidazole-5,2-diyl(2S)-2,1-pyrrolidinediyl((1R)-2-oxo-1-phenyl-2,1-ethanediyl)))biscarbamate]: < 4.57 nM; `COC(=O)N[C@H](C(=O)N1CCC[C@H]1c1nc2cc(C#Cc3ccc4[nH]c([C@@H]5CCCN5C(=O)[C@@H](NC(=O)OC)C(C)C)nc4c3)ccc2[nH]1)C(C)C` [Example M24, methyl ((1S)-1-(((2S)-2-(5-((2-((2S)-1-((2S)-2-((methoxycarbonyl)amino)-3-methylbutanoyl)-2-pyrrolidinyl)-1H-benzimidazol-5-yl)ethynyl)-1H-benzimidazol-2-yl)-1-pyrrolidinyl)carbonyl)-2-methylpropyl)carbamate]: < 4.57 nM.

On to `COC(=O)N[C@@H](C)C(=O)N1CCC[C@H]1c1nc2cc(C#Cc3ccc4[nH]c([C@@H]5CCCN5C(=O)[C@H](C)NC(=O)OC)nc4c3)ccc2[nH]1` [Example M25, methyl ((1S)-2-((2S)-2-(5-((2-((2S)-1-(N-(methoxycarbonyl)-L-alanyl)-2-pyrrolidinyl)-1H-benzimidazol-5-yl)ethynyl)-1H-benzimidazol-2-yl)-1-pyrrolidinyl)-1-methyl-2-oxoethyl)carbamate], for which the EC50 lay within 4.57 to 99 nM. In the case of `COC(=O)N[C@H](C)C(=O)N1CCC[C@H]1c1nc2cc(C#Cc3ccc4[nH]c([C@@H]5CCCN5C(=O)[C@@H](C)NC(=O)OC)nc4c3)ccc2[nH]1` [Example M26, methyl ((1R)-2-((2S)-2-(5-((2-((2S)-1-(N-(methoxycarbonyl)-D-alanyl)-2-pyrrolidinyl)-1H-benzimidazol-5-yl)ethynyl)-1H-benzimidazol-2-yl)-1-pyrrolidinyl)-1-methyl-2-oxoethyl)carbamate], the EC50 is < 4.57 nM.

The same test, now with this note: Hepatitis C virus, HCV 1b genotype replicon; numeric values.
`O=C(c1cccs1)N1CCC[C@H]1c1nc2cc(C#Cc3ccc4[nH]c([C@@H]5CCCN5C(=O)c5cccs5)nc4c3)ccc2[nH]1` [Example M10, 5,5′-(1,2-ethynediyl)bis(2-((2S)-1-(2-thienylcarbonyl)-2-pyrrolidinyl)-1H-benzimidazole)]: the EC50 worked out at 10 nM. For `COc1ccc2ccc(C(=O)N3CCC[C@H]3c3nc4cc(C#Cc5ccc6[nH]c([C@@H]7CCCN7C(=O)c7ccc8ccc(OC)cc8n7)nc6c5)ccc4[nH]3)nc2c1` [Example M17, 2,2′-(1,2-ethynediylbis(1H-benzimidazole-5,2-diyl(2S)-2,1-pyrrolidinediylcarbonyl))bis(7-methoxyquinoline)], the half-maximal effective concentration (EC50) was 20 nM.
